Measured values taken from ChEMBL document CHEMBL1201862, “PubChem BioAssay data set” (2004).
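48-hour exposure; five concentrations; linearly interpolated endpoints. GI50: concentration for 50% inhibition of growth.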 Activity calls are given as the source filed them. Rule as the data show it: active = GI50 up to about 1.1 µM and inactive = higher.

Legend:
Assay in all cases: inhibition of tumour cell growth, NCI panel, 48 h
SNB-19 = test system: SNB-19
SK-MEL-5 = test system: SK-MEL-5
OVCAR-5 = test system: OVCAR-5
SR = test system: SR
HT-29 = test system: HT-29
TK-10 = test system: TK-10
HCT-15 = test system: HCT-15
Malme-3M = test system: Malme-3M
EKVX = test system: EKVX
Hs-578T = test system: Hs-578T
A549 = test system: A549
UACC-257 = test system: UACC-257
KM12 = test system: KM12
SK-OV-3 = test system: SK-OV-3
786-0 = test system: 786-0
NCI-H522 = test system: NCI-H522
M14 = test system: M14
CAKI-1 = test system: CAKI-1
MDA-MB-435 = test system: MDA-MB-435
A498 = test system: A498

Row | Structure (SMILES) | GI50 (SNB-19) | GI50 (SK-MEL-5) | GI50 (OVCAR-5) | GI50 (SR) | GI50 (HT-29) | GI50 (TK-10) | GI50 (HCT-15) | GI50 (Malme-3M) | GI50 (EKVX) | GI50 (Hs-578T) | GI50 (A549) | GI50 (UACC-257) | GI50 (KM12) | GI50 (SK-OV-3) | GI50 (786-0) | GI50 (NCI-H522) | GI50 (M14) | GI50 (CAKI-1) | GI50 (MDA-MB-435) | GI50 (A498)
1 | CC1(C)OC(=O)C(C)(C)C(=O)O1 | > 100 µM (inactive) | > 100 µM (inactive) | > 100 µM (inactive) | > 100 µM (inactive) | > 100 µM (inactive) | > 100 µM (inactive) | > 100 µM | > 100 µM (inactive) | > 100 µM (inactive) | > 100 µM (inactive) | > 100 µM (inactive) | > 100 µM (inactive) | > 100 µM (inactive) | > 100 µM (inactive) | > 100 µM (inactive) | > 100 µM (inactive) | > 100 µM (inactive) | > 100 µM (inactive) | – | –
2 | CCCCCCc1cc(C=O)sc1-c1ccc(-c2sc(-c3ccc(-c4ccc(-c5cc(CCCCCC)c(-c6ccc(-c7sc(C=O)cc7CCCCCC)s6)s5)s4)s3)cc2CCCCCC)s1 | > 100 µM (inactive) | > 100 µM (inactive) | > 100 µM (inactive) | > 100 µM (inactive) | > 100 µM (inactive) | > 100 µM (inactive) | > 100 µM | > 100 µM (inactive) | > 100 µM (inactive) | – | > 100 µM (inactive) | > 100 µM (inactive) | > 100 µM (inactive) | > 100 µM (inactive) | > 100 µM (inactive) | 91.4 µM (inactive) | > 100 µM (inactive) | > 100 µM (inactive) | > 100 µM (inactive) | > 100 µM (inactive)
3 | Cn1c2ccccc2c2c3c(c4c5ccccc5n(C)c4c21)C(=O)N(c1ccccc1)C3=O | > 100 µM (inactive) | > 100 µM (inactive) | > 100 µM (inactive) | > 100 µM (inactive) | > 100 µM (inactive) | > 100 µM (inactive) | > 100 µM | > 100 µM (inactive) | > 100 µM (inactive) | – | > 100 µM (inactive) | > 100 µM (inactive) | > 100 µM (inactive) | > 100 µM (inactive) | > 100 µM (inactive) | 44.4 µM (inactive) | > 100 µM (inactive) | > 100 µM (inactive) | > 100 µM (inactive) | > 100 µM (inactive)
4 | O=C1OC2c3ccccc3C(=O)C2(c2ccccc2)N1c1ccccc1 (centres undefined) | > 200 µM (inactive) | > 200 µM (inactive) | > 200 µM (inactive) | – | > 200 µM (inactive) | > 200 µM (inactive) | > 200 µM | > 200 µM (inactive) | > 200 µM (inactive) | > 200 µM (inactive) | > 200 µM (inactive) | > 200 µM (inactive) | > 200 µM (inactive) | > 200 µM (inactive) | > 200 µM (inactive) | > 200 µM (inactive) | > 200 µM (inactive) | 121 µM (inactive) | > 200 µM (inactive) | > 200 µM (inactive)
5 | C[C@H]1CN[C@@H]2[C@@H](C)[C@H]3[C@@H](C[C@H]4[C@@H]5CC[C@H]6C[C@@H](N)CC[C@]6(C)[C@H]5CC[C@]34C)O[C@@]2(O)C1 | 2.07 µM (inactive) | 3.04 µM (inactive) | 5.47 µM (inactive) | – | 1.19 µM (inactive) | 2.53 µM (inactive) | 1.38 µM | 1.64 µM (inactive) | 3.34 µM (inactive) | 1.91 µM (inactive) | 3.8 µM (inactive) | 1.85 µM (inactive) | 1.91 µM (inactive) | 6.67 µM (inactive) | 1.69 µM (inactive) | 2.24 µM (inactive) | 2.04 µM (inactive) | 2.37 µM (inactive) | 1.6 µM (inactive) | 0.142 µM (active)
6 | COC(=O)C(C)(C)OCc1ccc(C2NC(=O)N(c3cccc(Cl)c3)C(=O)N2c2cccc(Cl)c2)cc1 (centres undefined) | > 100 µM (inactive) | 10.7 µM (inactive) | > 100 µM (inactive) | 0.52 µM (active) | 26.1 µM (inactive) | – | 19.6 µM | – | 10.5 µM (inactive) | 3.96 µM (inactive) | 35.2 µM (inactive) | 31.8 µM (inactive) | 23.7 µM (inactive) | 54.3 µM (inactive) | 40.9 µM (inactive) | 10.6 µM (inactive) | 65.3 µM (inactive) | 35.2 µM (inactive) | 46 µM (inactive) | –
7 | CC[C@]12C=CCN3CC[C@@]4(c5cc(Br)c(OC)cc5N(C)[C@H]4[C@@](O)(C(=O)NC(Cc4c[nH]c5ccccc45)C(=O)OC)[C@@H]1O)[C@@H]32 (some centres undefined) | 33.2 µM (inactive) | 7.31 µM (inactive) | 71.4 µM (inactive) | 4.33 µM (inactive) | 7.89 µM (inactive) | – | 5.74 µM | 11.6 µM (inactive) | 18.4 µM (inactive) | 58.3 µM (inactive) | 11.8 µM (inactive) | – | 11 µM (inactive) | > 100 µM (inactive) | 45.5 µM (inactive) | 8.83 µM (inactive) | 20.5 µM (inactive) | 86.1 µM (inactive) | 26.2 µM (inactive) | –
8 | CCOC(=O)CNC(=O)C(CSC(=O)N(O)c1ccc(Cl)cc1)NC(=O)CCC(N)C(=O)OCC (centres undefined) | 9.53 µM (inactive) | > 50 µM (inactive) | > 50 µM (inactive) | 43.5 µM (inactive) | > 50 µM (inactive) | – | > 50 µM | – | 12.5 µM (inactive) | 1.9 µM (inactive) | > 50 µM (inactive) | > 50 µM (inactive) | 12.2 µM (inactive) | > 50 µM (inactive) | > 50 µM (inactive) | – | 34.8 µM (inactive) | > 50 µM (inactive) | 30.1 µM (inactive) | –
